These results are taken from paper PMC12169104, “Towards the development of supramolecular self-associating amphiphiles as antibiofilm agents against Pseudomonas aeruginosa and Candida albicans biofilms” (Journal of Materials Chemistry. B, 2025).

The structures appear in SMILES notation. Where only a bound is given, the exact number is not on record here.

By Cmax is commonly meant the highest concentration seen after dosing. A word on the AUC(0-inf): it is the area under the concentration-time curve extrapolated to infinity. Low values mean less exposure, high ones more exposure. By AUC(0-t) is commonly meant the area under the concentration-time curve up to a stated or last time point. High values mean more exposure, low ones less exposure. Broadly, the Tmax is the time from dosing to the highest level. A word on the half-life: it is the time needed for the level to fall by half in the phase considered. A lower half-life goes with fast loss.

The nature of data set [1]: Protein binding in human plasma by equilibrium dialysis. It is filed as in vitro ADME. How it is done: Section S5: In vitro and in vivo studies
These studies were performed by Contract Research Organisation (CRO) Pharmaron. The methodology provided within the ESI is published within the express permission of this organisation.
The percentage of a compound recovered during the analysis process should be 100 %; any deviation from this value indicates experimental limitations such as unintended potential non-specific binding events to experimental equipment, solubility issues, etc.
In vitro Absorption, Distribution and Metabolism studies methods:
Protein Binding measurements in human plasma by using equilibrium dialysis:
The fraction unbound in human plasma (P-KB, Ltd People’s hospital of Shandong) was measured using 96-well Equilibrium Dialysis Plate (HTDialysis LLC, Gales Ferry, CT). Human plasma containing 5 µM test compound was dialysed against dialysis buffer (PBS, pH 7.4) with initial samples taken to allow for assessment of plasma stability and recovery before the plate was incubated for 6 hours at 37°C at 5%
CO2. Samples were removed at 6 hours, and all samples were matrix matched and quenched with acetonitrile containing internal standard. Samples were centrifuged at 3,220g for 30 minutes to precipitate protein and enable sampling of supernatant prior to appropr iate dilution for liquid chromatography mass -spectrometry (LC -MS/MS) analysis.
Samples were analysed using a Shimadzu Nexera LC Binary Gradient LC -30AD (Shimadzu Inc, Kyoto), coupled to a Sciex 6500+ (AB Inc., Illinois). Separation was achieved using a XSelect HSS T3 (2.5µm, 2.1 x 50 mm) (Waters Ltd., Wilmslow) column at a temperature of 40°C and a binary mobile phase gradient at a flow rate of 0.8 mL/min. Initial LC conditions comprised of 95% solvent A (0.1% formic acid in water), 5% solvent B (0.1% formic acid in acetonitrile); this was ramped to 98% B at 0.5 min, held for 0.4 min and then immediately returned to initial conditions. Sample analysis was by electrospray ionisation in combined with multiple reaction monitoring in positive ionisation mode. The ionisation […]
On the technique in general: Equilibrium dialysis compares concentrations on both sides of a semipermeable membrane.

A short description of data set [2]: In vivo pharmacokinetic study, intravenous. The following applies: IV 1 mg/kg. Further details: species or system female CD-1 mice. How it is done: In vitro Absorption, Distribution and Metabolism results […]
In vivo Pharmacokinetic study methods
SSA 5 was dosed at 1 mg/kg to female CD -1 mice (n=3) via an intravenous tail vein bolus administration, dose formulation was a solution in 2% DMSO/98% Water. Blood was sampled from the dorsal metatarsal vein at each time point (n=8) and added to tubes containing anticoagulant K2-EDTA. Blood samples were extracted by protein precipitation. Blood concentrations were calculated through UPLC-MS/MS techniques, with internal standard. The lower limit of quantitation was 6.4 nM. PK parameters were calculated using Phoenix WinNonlin version 8.3.

Setting [3] is: mouse, whole blood, blood, female CD-1 mice.

`O=C(O)CNc1c(Nc2ccc(C(F)(F)F)cc2)c(=O)c1=O` [SSA 5]: in data set [1] (human plasma, 6 hours), the “% Stability” value is recorded as 99.5%. In data set [1] (human, plasma, pH 7.4, SSA recovered from the assay after 6 hours), the recovery at 6 h, 5 µM was found to be 102%. The fraction unbound at 6 h, 5 µM in data set [1] (pH 7.4, human plasma proteins, 5 µM, 6 hours incubation at 37 °C, read-out: % Bound (converted)) was 0.076. Moreover, the “Cl Blood as % LBF” value in data set [2] (female CD-1 mice) is above 100 % LBF. Moreover, the concentration at 2 h in data set [2] (female, CD-1, mouse, whole blood, 2 hours following dosing, read-out: blood level at last detected time) came to 8.1 nM. For the same compound, in data set [2] (mouse, whole blood, female CD-1 mice, read-out: Cl Blood), the clearance came to 162 ± 28 mL/min/kg. In addition, in data set [2] (mouse, whole blood, female CD-1 mice, read-out: Vss), the Vd is 3.1 ± 1.7 L/kg. The same compound showed a Cmax in data set [2] (mouse, whole blood, blood, DMSO:H2O 2:98, female CD-1 mice) of 1200 ± 208 nM. In addition, in data set [2] (setting [3]), the AUC(0-inf) was determined as 0.335 ± 0.06 µM·h, the AUC(0-t) was determined as 0.327 ± 0.057 µM·h and the Tmax turned out to be 4.98 min. The half-life in data set [2] (mouse, whole blood, terminal half-life, female CD-1 mice) is 43.8 ± 36.6 min.
